Experimental data: ChEMBL document CHEMBL3822442, “Synthesis and Pharmacological Characterization of Novel Glucagon-like Peptide-2 (GLP-2) Analogues with Low Systemic Clearance” (J Med Chem, 2016)

Assays:
Type in all cases: cell-based
HEK293 = assay: Selectivity ratio of EC50 for human GLP1R expressed in HEK293 cells to EC50 for human GLP2R expressed in HEK293
[1] = target: T1, Glucagon-like peptide 2 receptor (Homo sapiens, UniProt O95838); assay: Agonist activity at human GLP2R expressed in HEK293 cells after 5 hrs by luciferase reporter gene assay
T1 sequence (O95838 whole entry): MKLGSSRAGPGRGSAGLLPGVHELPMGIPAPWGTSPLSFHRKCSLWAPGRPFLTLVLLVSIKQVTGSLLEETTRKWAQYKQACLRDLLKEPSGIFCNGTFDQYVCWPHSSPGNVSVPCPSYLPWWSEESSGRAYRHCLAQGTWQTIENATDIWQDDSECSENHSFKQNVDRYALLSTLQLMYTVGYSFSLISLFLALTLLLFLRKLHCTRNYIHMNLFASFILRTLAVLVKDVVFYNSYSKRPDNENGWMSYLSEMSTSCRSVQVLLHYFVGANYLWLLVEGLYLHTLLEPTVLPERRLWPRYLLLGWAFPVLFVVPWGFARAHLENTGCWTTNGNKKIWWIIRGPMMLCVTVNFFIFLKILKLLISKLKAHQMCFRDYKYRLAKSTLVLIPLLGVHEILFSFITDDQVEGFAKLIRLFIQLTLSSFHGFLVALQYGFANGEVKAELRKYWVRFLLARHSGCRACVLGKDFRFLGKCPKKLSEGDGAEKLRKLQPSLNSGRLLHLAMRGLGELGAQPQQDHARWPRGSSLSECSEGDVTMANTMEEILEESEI

[2] = target: Glucagon-like peptide 1 receptor (Homo sapiens, UniProt P43220); assay: Agonist activity at human GLP1R expressed in HEK293 cells after 5 hrs by luciferase reporter gene assay
Glucagon-like peptide 1 receptor, sequence (P43220 whole entry): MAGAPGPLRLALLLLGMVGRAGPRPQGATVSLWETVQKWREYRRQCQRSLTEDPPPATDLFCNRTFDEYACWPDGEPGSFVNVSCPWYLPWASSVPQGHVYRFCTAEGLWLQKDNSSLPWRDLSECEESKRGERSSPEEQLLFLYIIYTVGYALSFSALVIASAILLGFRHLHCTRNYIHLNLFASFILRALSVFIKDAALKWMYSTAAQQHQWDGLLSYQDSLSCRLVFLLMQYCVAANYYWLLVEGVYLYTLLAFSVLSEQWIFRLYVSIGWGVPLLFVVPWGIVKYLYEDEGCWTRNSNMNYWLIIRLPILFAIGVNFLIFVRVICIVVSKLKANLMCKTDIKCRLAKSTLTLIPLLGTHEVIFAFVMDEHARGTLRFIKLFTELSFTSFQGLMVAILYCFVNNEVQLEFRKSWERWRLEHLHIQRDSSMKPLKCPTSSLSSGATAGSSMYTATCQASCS

Row | SMILES | Ratio EC50 (HEK293) | EC50 [1] | EC50 [2]
1 | CCCCC(NC(=O)[C@H](CCC(=O)O)NC(=O)[C@H](CC(=O)O)NC(=O)[C@H](CO)NC(=O)[C@H](Cc1ccccc1)NC(=O)[C@H](CO)NC(=O)CNC(=O)[C@H](CC(=O)O)NC(=O)CNC(=O)[C@@H](N)Cc1cnc[nH]1)C(=O)N[C@H](Cc1ccccc1)C(=O)N[C@H](C(=O)N[C@H](C(=O)N[C@@H](CC(C)C)C(=O)N[C@@H](CC(=O)O)C(=O)N[C@@H](CC(C)C)C(=O)N[C@@H](CC(C)C)C(=O)N[C@@H](C)C(=O)N[C@@H](C)C(=O)N[C@@H](CCCNC(=N)N)C(=O)N[C@@H](CC(=O)O)C(=O)N[C@@H](Cc1ccccc1)C(=O)N[C@H](C(=O)N[C@@H](CC(N)=O)C(=O)N[C@@H](Cc1c[nH]c2ccccc12)C(=O)N[C@@H](CC(C)C)C(=O)N[C@H](C(=O)N[C@@H](CCC(N)=O)C(=O)N[C@H](C(=O)N[C@@H](CCCCN)C(=O)N[C@H](C(=O)N[C@H](C(=O)N[C@@H](CC(=O)O)C(=O)O)[C@@H](C)O)[C@@H](C)CC)[C@@H](C)O)[C@@H](C)CC)[C@@H](C)CC)[C@@H](C)CC)[C@@H](C)O (stereo partly drawn) | > 33000 |  | 
2 | CCCCC(NC(=O)[C@H](CCC(=O)O)NC(=O)[C@H](CC(=O)O)NC(=O)[C@H](CO)NC(=O)[C@H](Cc1ccccc1)NC(=O)[C@H](CO)NC(=O)CNC(=O)[C@H](CC(=O)O)NC(=O)CNC(=O)[C@@H](N)Cc1cnc[nH]1)C(=O)N[C@H](Cc1ccccc1)C(=O)N[C@H](C(=O)N[C@H](C(=O)N[C@@H](CC(C)C)C(=O)N[C@@H](CC(=O)O)C(=O)N[C@@H](CC(C)C)C(=O)N[C@@H](CC(C)C)C(=O)N[C@@H](C)C(=O)N[C@@H](C)C(=O)N[C@@H](CCCNC(=N)N)C(=O)N[C@@H](CC(=O)O)C(=O)N[C@@H](Cc1ccccc1)C(=O)N[C@H](C(=O)N[C@@H](CC(N)=O)C(=O)N[C@@H](Cc1c[nH]c2ccccc12)C(=O)N[C@@H](CC(C)C)C(=O)N[C@H](C(=O)N[C@@H](CCC(N)=O)C(=O)N[C@H](C(=O)N[C@@H](CCCCN)C(=O)N[C@H](C(=O)N[C@H](C(=O)N[C@@H](CC(=O)O)C(=O)NCCOCCOCCOCCOCCC(N)=O)[C@@H](C)O)[C@@H](C)CC)[C@@H](C)O)[C@@H](C)CC)[C@@H](C)CC)[C@@H](C)CC)[C@@H](C)O (stereo partly drawn) | > 33000 |  | 
3 | CCCCC(NC(=O)[C@H](CCC(=O)O)NC(=O)[C@H](CC(=O)O)NC(=O)[C@H](CO)NC(=O)[C@H](Cc1ccccc1)NC(=O)[C@H](CO)NC(=O)CNC(=O)[C@H](CC(=O)O)NC(=O)CNC(=O)[C@@H](N)Cc1cnc[nH]1)C(=O)N[C@H](Cc1ccccc1)C(=O)N[C@H](C(=O)N[C@H](C(=O)N[C@@H](CC(C)C)C(=O)N[C@@H](CC(=O)O)C(=O)N[C@@H](CC(C)C)C(=O)N[C@@H](CC(C)C)C(=O)N[C@@H](C)C(=O)N[C@@H](C)C(=O)N[C@@H](CCCNC(=N)N)C(=O)N[C@@H](CC(=O)O)C(=O)N[C@@H](Cc1ccccc1)C(=O)N[C@H](C(=O)N[C@@H](CC(N)=O)C(=O)N[C@@H](Cc1c[nH]c2ccccc12)C(=O)N[C@@H](CC(C)C)C(=O)N[C@H](C(=O)N[C@@H](CCC(N)=O)C(=O)N[C@H](C(=O)N[C@@H](CCCCN)C(=O)N[C@H](C(=O)N[C@H](C(=O)N[C@@H](CC(=O)O)C(=O)NCC)[C@@H](C)O)[C@@H](C)CC)[C@@H](C)O)[C@@H](C)CC)[C@@H](C)CC)[C@@H](C)CC)[C@@H](C)O (stereo partly drawn) | > 20000 |  | 
4 | CCCCC(NC(=O)[C@H](CCC(=O)O)NC(=O)[C@H](CC(=O)O)NC(=O)[C@H](CO)NC(=O)[C@H](Cc1ccccc1)NC(=O)[C@H](CO)NC(=O)CNC(=O)[C@H](CC(=O)O)NC(=O)CNC(=O)[C@@H](N)Cc1cnc[nH]1)C(=O)N[C@H](Cc1ccccc1)C(=O)N[C@H](C(=O)N[C@H](C(=O)N[C@@H](CC(C)C)C(=O)N[C@@H](CC(=O)O)C(=O)N[C@@H](CC(C)C)C(=O)N[C@@H](CC(C)C)C(=O)N[C@@H](C)C(=O)N[C@@H](C)C(=O)N[C@@H](CCCNC(=N)N)C(=O)N[C@@H](CC(=O)O)C(=O)N[C@@H](Cc1ccccc1)C(=O)N[C@H](C(=O)N[C@@H](CC(N)=O)C(=O)N[C@@H](Cc1c[nH]c2ccccc12)C(=O)N[C@@H](CC(C)C)C(=O)N[C@H](C(=O)N[C@@H](CCC(N)=O)C(=O)N[C@H](C(=O)N[C@@H](CCCCN)C(=O)N[C@H](C(=O)N[C@H](C(=O)N[C@@H](CC(=O)O)C(N)=O)[C@@H](C)O)[C@@H](C)CC)[C@@H](C)O)[C@@H](C)CC)[C@@H](C)CC)[C@@H](C)CC)[C@@H](C)O (stereo partly drawn) | > 33000 |  | 
5 | CCCC[C@H](NC(=O)[C@H](CCC(=O)O)NC(=O)[C@H](CC(=O)O)NC(=O)[C@H](CO)NC(=O)[C@H](Cc1ccccc1)NC(=O)[C@H](CO)NC(=O)CNC(=O)[C@H](CC(=O)O)NC(=O)CNC(=O)[C@@H](N)Cc1cnc[nH]1)C(=O)N[C@@H](CC(N)=O)C(=O)N[C@H](C(=O)N[C@H](C(=O)N[C@@H](CC(C)C)C(=O)N[C@@H](CC(=O)O)C(=O)N[C@@H](Cc1ccc(-c2ccccc2)cc1)C(=O)N[C@@H](CC(C)C)C(=O)N[C@@H](C)C(=O)N[C@@H](C)C(=O)N[C@@H](CCCNC(=N)N)C(=O)N[C@@H](CC(=O)O)C(=O)N[C@@H](Cc1ccccc1)C(=O)N[C@H](C(=O)N[C@@H](CC(N)=O)C(=O)N[C@@H](Cc1c[nH]c2ccccc12)C(=O)N[C@@H](CC(C)C)C(=O)N[C@H](C(=O)N[C@@H](CCC(N)=O)C(=O)N[C@H](C(=O)N[C@@H](CCCCN)C(N)=O)[C@@H](C)O)[C@@H](C)CC)[C@@H](C)CC)[C@@H](C)CC)[C@@H](C)O |  | 0.35 nM | > 1000 nM
6 | CCCCC(NC(=O)[C@H](CCC(=O)O)NC(=O)[C@H](CC(=O)O)NC(=O)[C@H](CO)NC(=O)[C@H](Cc1ccccc1)NC(=O)[C@H](CO)NC(=O)CNC(=O)[C@H](CC(=O)O)NC(=O)CNC(=O)[C@@H](N)Cc1cnc[nH]1)C(=O)N[C@H](Cc1ccccc1)C(=O)N[C@H](C(=O)N[C@H](C(=O)N[C@@H](CC(C)C)C(=O)N[C@@H](CC(=O)O)C(=O)N[C@@H](CC(C)C)C(=O)N[C@@H](CC(C)C)C(=O)N[C@@H](C)C(=O)N[C@@H](C)C(=O)N[C@@H](CCCNC(=N)N)C(=O)N[C@@H](CC(=O)O)C(=O)N[C@@H](Cc1ccccc1)C(=O)N[C@H](C(=O)N[C@@H](CC(N)=O)C(=O)N[C@@H](Cc1c[nH]c2ccccc12)C(=O)N[C@@H](CC(C)C)C(=O)N[C@H](C(=O)N[C@@H](CCC(N)=O)C(=O)N[C@H](C(=O)N[C@@H](CCCCN)C(N)=O)[C@@H](C)O)[C@@H](C)CC)[C@@H](C)CC)[C@@H](C)CC)[C@@H](C)O (stereo partly drawn) | > 12000 |  | 
7 | CCCCC(NC(=O)[C@H](CCC(=O)O)NC(=O)[C@H](CC(=O)O)NC(=O)[C@H](CO)NC(=O)[C@H](Cc1ccccc1)NC(=O)[C@H](CO)NC(=O)CNC(=O)[C@H](CC(=O)O)NC(=O)CNC(=O)[C@@H](N)Cc1cnc[nH]1)C(=O)N[C@H](Cc1cccs1)C(=O)N[C@H](C(=O)N[C@H](C(=O)N[C@@H](CC(C)C)C(=O)N[C@@H](CC(=O)O)C(=O)N[C@@H](Cc1ccccc1)C(=O)N[C@@H](CC(C)C)C(=O)N[C@@H](C)C(=O)N[C@@H](C)C(=O)N[C@@H](CCCNC(=N)N)C(=O)N[C@@H](CC(=O)O)C(=O)N[C@@H](Cc1ccccc1)C(=O)N[C@H](C(=O)N[C@@H](CC(N)=O)C(=O)N[C@@H](Cc1c[nH]c2ccccc12)C(=O)N[C@@H](CC(C)C)C(=O)N[C@H](C(=O)N[C@@H](CCC(N)=O)C(=O)N[C@H](C(=O)N[C@@H](CCCCN)C(N)=O)[C@@H](C)O)[C@@H](C)CC)[C@@H](C)CC)[C@@H](C)CC)[C@@H](C)O (stereo partly drawn) | > 12000 |  | 
